Literature values, collected in patent US5994374A, “Substituted 1-indolylpropyl-4-benzyl-tetrahydropyridine derivatives” (Merck Sharp & Dohme Ltd., priority 1995, dated 1999).

System: human 5-HT1Dα and 5-HT1Dβ receptor subtypes
Settings: cf. WO-A-91/17174, Table 1

## CNS(=O)(=O)Cc1ccc2[nH]cc(CCN(C)C)c2c1 [sumatriptan]
  discrimination between the human 5-HT1Dα and 5-HT1Dβ receptor subtypes: barely discriminates
